We go through 3 compounds from patent US20110039808A1, “Multitarget Compounds Active at a PPAR and Cannabinoid Receptor” (priority 2007, published 2011).

What is called EC50 is the midpoint of the concentration-response curve. A lower EC50 goes with a more potent agent.

In experiment [1] the target is T1, PPAR-γ receptor (Homo sapiens, UniProt P37231).
T1 sequence (P37231 1-505): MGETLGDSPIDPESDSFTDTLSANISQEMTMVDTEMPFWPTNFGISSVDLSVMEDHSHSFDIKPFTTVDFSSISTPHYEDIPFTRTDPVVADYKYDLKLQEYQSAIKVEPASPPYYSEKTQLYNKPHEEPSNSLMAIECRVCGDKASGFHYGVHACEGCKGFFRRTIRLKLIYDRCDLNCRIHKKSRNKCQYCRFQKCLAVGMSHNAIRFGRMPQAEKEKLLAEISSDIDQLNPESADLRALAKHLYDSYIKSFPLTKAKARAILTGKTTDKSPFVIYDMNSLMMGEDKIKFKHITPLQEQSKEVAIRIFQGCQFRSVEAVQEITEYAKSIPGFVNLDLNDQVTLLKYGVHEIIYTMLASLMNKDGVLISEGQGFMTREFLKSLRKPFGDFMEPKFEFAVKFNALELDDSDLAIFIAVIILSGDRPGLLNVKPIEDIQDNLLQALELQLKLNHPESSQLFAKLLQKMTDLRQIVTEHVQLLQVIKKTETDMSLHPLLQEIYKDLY
Nature of the experiment: biochemical. Type of experiment: biochemical.

Experiment [2] has as its target T2, PPAR-γ receptor (Homo sapiens, UniProt P37231).
T2 sequence (P37231 238-505 limits assumed): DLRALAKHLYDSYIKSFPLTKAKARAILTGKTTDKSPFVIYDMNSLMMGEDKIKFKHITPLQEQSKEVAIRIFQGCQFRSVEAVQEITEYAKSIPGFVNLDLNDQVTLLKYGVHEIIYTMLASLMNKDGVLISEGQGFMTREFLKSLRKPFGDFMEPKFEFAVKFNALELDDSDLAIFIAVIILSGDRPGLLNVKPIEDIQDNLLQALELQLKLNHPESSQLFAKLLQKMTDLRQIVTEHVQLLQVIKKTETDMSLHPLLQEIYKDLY
Nature of the experiment: cell-based. An excerpt:
FIG. 14: Activity of a number of compounds of the invention at the PPAR-γ receptor in cell based system (GeneBlazer) versus rosglitazone control.

Molecules are shown by their SMILES.

`Cc1c(CCNc2ccc(C(=O)O)c(O)c2)c2ccccc2n1C(=O)c1cccc(Cl)c1Cl` [DWIN8 (XII), 4-{2-[1-(2,3-Dichloro-benzoyl)-2-methyl-1H-indol-3-yl]-ethylamino}-2-hydroxy-benzoic acid]: the “activity in initial dose-response curves” value at PPAR-γ receptor [1] (initial dose-response curves, statement follows the PPAR-γ cell free table) was “not active”.
For the compound `Cc1c(C(=O)c2cccc3ccccc23)c2ccccc2n1CCNc1ccc(C(=O)O)c(O)c1` [DWIN1 (IX), 2-Hydroxy-4-{2-[2-methyl-3-(naphthalene-1-carbonyl)-indol-yl]-ethylamino}-benzoic acid], the EC50 was 0.493 µM on PPAR-γ receptor [1] and 0.8 µM at PPAR-γ receptor [2].
Regarding `Cc1c(C(=O)c2cccc3ccccc23)c2ccccc2n1CCNc1ccc(O)c(C(=O)O)c1` [DWIN2 (X), 2-Hydroxy-5-{2-[2-methyl-3-(naphthalene-1-carbonyl)-indol-1-yl]-ethylamino}-benzoic acid], the results for the EC50 on PPAR-γ receptor [1] and at PPAR-γ receptor [2] were 0.358 µM and 1.05 µM, respectively.
